This is an account of results in paper PMC12889028, “Discovery and biological evaluation of novel N-aryl-N′-methylbenzodrazides against Schistosoma japonicum in vitro and in vivo” (Microbiology Spectrum, 2025).

Structures are written as SMILES. Like-named read-outs stand apart in the source and are kept apart here.

In data set [1] the test system is MCF-7 (human breast cancer) cells. The experiment in a line: Cytotoxicity MTT assay, MCF-7. Format: cell-based. Particulars: 48 h incubation. How it is done: (§1) The cytotoxicity of compounds 5, 18, and 41 against human liver cancer (HepG2) and human breast cancer (MCF-7) cell lines in vitro was evaluated using the MTT assay, with cisplatin as a positive control. Cells were plated into 96-well plates and incubated in 100 μL of Dulbecco’s modified Eagle’s medium for 24 h. Test compounds at specified final concentrations were then added to the culture medium. After 48 h incubation, MTT dye (10 μL, 0.5 mg/mL) was added, and cells were incubated for an additional 4 h at 37°C in 5% CO2. Formazan crystals were dissolved in 100 μL DMSO per well, and absorbance at 570 nm (OD570) was measured using an ELx800 microplate reader (Bio-Tek, Winooski, VT, USA) with background subtraction. Cytotoxicity was expressed as IC50 (the concentration causing 50% reduction in cell growth compared to untreated controls). Experiments were performed in triplicate, with results presented as mean ± standard deviation.

Data set [2] concerns HepG2 (human liver cancer) cells. The experiment in a line: Cytotoxicity MTT assay, HepG2. Format: cell-based. The settings on record: 48 h incubation. How it is done:
as §1

The test system of data set [3] is adult worms of S. japonicum (Chinese strain). In words: microbe, parasite or virus in culture. The settings on record: for Mortality (%) 72 h: 100 μM, adult worms in vitro. On the procedure: S. japonicum cercariae (Chinese strain) were acquired from infected Oncomelania hupensis snails (Wuxi Insect Vector Biology Co., Ltd., China) ([28]). ICR mice (6–8 weeks, 22–25 g; Hunan SJA Laboratory Animal Co., Ltd., China) were percutaneously infected via abdominal exposure to 60 ± 5 cercariae. Adult schistosomes were perfused from the hepatic portal system at 35 dpi using a modified Duvall and DeWitt method ([29]). Animals were housed under controlled conditions (22°C ± 1°C, 12 h light/dark cycle) with ad libitum access to feed and water.
Adult S. japonicum worms isolated from ICR mice were maintained in sterile culture medium (2.0 mL) comprising 77% RPMI 1640 (Lanzhou Bailing Biotech Co., Ltd.; pH 7.5, HEPES-buffered), 20% heat-inactivated fetal bovine serum (Lanzhou Minhai Bio-Engineering Co., Ltd.), and 3% penicillin-streptomycin (100×; 10,000 U/mL penicillin, 10,000 μg/mL streptomycin; New Cell & Molecular Biotech Co., Ltd., China). Incubation was performed at 37°C under 5% CO2. Test compounds were dissolved in DMSO as 0.1 M stock solutions; 2.0 μL aliquots were added to worm-containing media (final concentration: 100 μM in 0.1% DMSO). Negative controls received equivalent volumes of vehicle (0.1% DMSO in RPMI 1640). Parasite viability (motor activity, tegumental integrity, survival) was assessed every 12 h for 72 h using an Olympus CKX53 inverted microscope (n ≥ 3 independent replicates).

Data set [4] deals with S. japonicum (Chinese strain). The experiment in a line: In vivo antischistosomal assay in infected mice (worm burden, worm morphology, liver eggs). Details: species or system Schistosoma japonicum in ICR mice. On the procedure: Lead compounds 5, 18, and 41 (100 mg/kg) were orally administered once daily for 5 consecutive days to infected mice (n = 6/group) during two therapeutic windows: (i) Juvenile stage: treatment initiated at 9 dpi, terminal sacrifice at 45 dpi; (ii) adult stage: treatment initiated at 35 dpi, terminal sacrifice at 45 dpi. Positive controls received praziquantel (PZQ, 100 mg/kg/day ×5 days); negative controls received PBS (0.3 mL). Mice treated at 9 dpi were euthanized 36 days post-treatment; those treated at 35 dpi were euthanized 10 days post-treatment. Adult worms were perfused from the hepatic portal system and mesenteric veins. Parasite burden was quantified by worm enumeration, and worm burden reduction (WBR) was calculated:
WBR (%)=[1−Mean worm count (treated) / Mean worm count (control)]×100% .

In the next data set the test system is adult S. japonicum worms. In words: SEM examination in vitro of tegumental damage. The settings on record: 100 μM. Format: cell-based, Schistosoma japonicum. How it is done: Adult S. japonicum worms (male/female) underwent standardized fixation after in vitro exposure to compounds 5, 18, and 41 over a period of 12 h. First, the samples were immersed in 2.5% glutaraldehyde (prepared with 40 mL 0.2 M phosphate-buffered saline [PBS, pH 7.4], 5 mL 50% glutaraldehyde stock, and 55 mL ultrapure water) at 4°C for 24 h. After triple washes in PBS for 5 min each, worms were rinsed with deionized water for 10 min. The next dehydration sequence included ethanol gradient (50%, 70%, 80%, 90%, 100%; 5 min/step) and tert-butanol gradient (50%, 70%, 90%, 100%; 10 min/step). The worms were freeze-dried, directly sputter-covered with a thin gold layer using a Sputter Coater, and imaged using a scanning electron microscope (Quanta 450).

[5] abbreviates: Schistosoma japonicum, 24 h, read-out: Mortality (%) 24 h, 100 μM, 24 h, adult worms in vitro.
Setting [6] is: Schistosoma japonicum, 36 h, read-out: Mortality (%) 36 h, 100 μM, 36 h, adult worms in vitro.
[7] abbreviates: Schistosoma japonicum, 48 h, read-out: Mortality (%) 48 h, 100 μM, 48 h, adult worms in vitro.
[8] abbreviates: Schistosoma japonicum, 72 h, read-out: Mortality (%) 72 h, 100 μM, 72 h, adult worms in vitro.

In general, IC50 refers to the concentration that gives 50% inhibition. Low readings indicate inhibition by little substance, high ones a need for much substance. Regarding `N.N.[Cl][Pt][Cl]` [Cisplatin, reference compound], the IC50 stood at 1.17 ± 0.13 µM in data set [1] and 3.51 ± 0.14 µM in data set [2].

As a reminder, the mortality is the share of the test organisms that died. As to `CN(NC(=O)c1ccc([N+](=O)[O-])cc1)c1ccc(Cl)c(Cl)c1` [Compound 21], the mortality at 100 µM in data set [3] (setting [5]) was determined as 0%; in data set [3] (setting [6]), 0%; in data set [3] (setting [7]) it was 30%; in data set [3] (setting [8]), 65%.

With `CN(NC(=O)c1ccc(Cl)c(Cl)c1)c1ccc(Cl)c(C(F)(F)F)c1` [Compound 14], the “Mortality (%) 72 h” value in data set [3] (72 h) is on record as 95%. Further, the mortality at 100 µM was 15% in data set [3] (setting [5]), 25% in data set [3] (setting [6]), 55% in data set [3] (setting [7]) and more than 80% in data set [3] (setting [8]).

As to `CN(NC(=O)c1ccc(Br)cc1)c1ccccc1Cl` [Compound 39], the mortality at 100 µM in data set [3] (setting [5]) was 0%; in data set [3] (setting [6]) it was 0%; in data set [3] (setting [7]), 10%; in data set [3] (setting [8]) it was 20%.

For the molecule `CN(NC(=O)c1ccc(Br)cc1)c1ccc(C#N)cc1` [Compound 32], the mortality at 100 µM in data set [3] (setting [5]), in data set [3] (setting [6]), in data set [3] (setting [7]) and in data set [3] (setting [8]) was 0% throughout.

As to `CN(NC(=O)c1ccc(Br)cc1)c1ccc(C(F)(F)F)cc1` [Compound 31], the mortality at 100 µM in data set [3] (setting [5]) was 0%; in data set [3] (setting [6]) it was 10%; in data set [3] (setting [7]), 55%; in data set [3] (setting [8]) it was 75%.

For `CN(NC(=O)c1ccc(Br)cc1)c1ccccc1F` [Compound 38], the mortality at 100 µM in data set [3] (setting [5]) was found to be 0%; in data set [3] (setting [6]), 0%; in data set [3] (setting [7]), 10%; in data set [3] (setting [8]), 10%.

Consider `Cc1ccc(N(C)NC(=O)c2ccc(Br)cc2)cc1` [Compound 26], for which the mortality at 100 µM worked out at 0% in data set [3] (setting [5]), 0% in data set [3] (setting [6]), 10% in data set [3] (setting [7]) and 10% in data set [3] (setting [8]).

Consider `COc1ccc(N(C)NC(=O)c2ccc(Br)cc2)cc1` [Compound 27], for which the mortality at 100 µM in data set [3] (setting [5]), in data set [3] (setting [6]), in data set [3] (setting [7]) and in data set [3] (setting [8]) was 0% in each case.

By LC50 is commonly meant the concentration that kills 50% of the test population. Take `O=C(C1CCCCC1)N1CC(=O)N2CCc3ccccc3C2C1` (stereo not shown) [PZQ, praziquantel, reference compound]: the “Worm burden reduction (WBR), Adult” value in data set [4] (mice, oral 100 mg/kg/day for 5 days, adult stage (from 35 dpi), 100 mg/kg/day) amounted to 100%. For the same molecule, in data set [4] (mice, oral 100 mg/kg/day for 5 days, adult stage (treatment from 35 dpi, sacrifice 45 dpi)), the “Number of worms, Adult” value is given as 0. In data set [4] (mice, oral 100 mg/kg/day for 5 days, juvenile stage), the “Morphology of worms after treatment in vivo, juvenile stage” value is “no significant tegumental alterations compared to negative controls”. Besides, the “Worm burden reduction (WBR), Juvenile” value in data set [4] (mice, oral 100 mg/kg/day for 5 days, juvenile stage (from 9 dpi), 100 mg/kg/day) turned out to be 0%. Further, the “Number of worms, Juvenile” value in data set [4] (mice, oral 100 mg/kg/day for 5 days, juvenile stage (treatment from 9 dpi, sacrifice 45 dpi)) was 39. Besides, in data set [4] (mouse livers at 45 dpi, treatment in adult stage), the “Hepatic egg burden, adult-stage treatment” value was “significantly reduced both ovum dimensions and egg counts”. Further, in data set [4] (mouse livers at 45 dpi, treatment in juvenile stage), the “Hepatic egg burden, juvenile-stage treatment” value is given as “without statistically significant ovicidal efficacy”. Besides, the “Tegumental damage (SEM), female adult worms” value in the data set on adult S. japonicum worms (female worms) is “multifocal vesiculation, ulcerative lesions penetrating the basal lamina, and progressive tegumental corrugation”. Also, the “Tegumental damage (SEM), male adult worms” value with adult S. japonicum worms (male worms) was “extensive tegumental desquamation, complete muscular layer exposure with striation disruption, and ventral sucker collapse”. For the same molecule, the mortality at 100 µM in data set [3] (Schistosoma japonicum, 24 h, read-out: Mortality (%) 24 h) was 100%; in data set [3] (Schistosoma japonicum, 36 h, read-out: Mortality (%) 36 h), 100%; in data set [3] (Schistosoma japonicum, 48 h, read-out: Mortality (%) 48 h) it was 100%; in data set [3] (Schistosoma japonicum, 72 h, read-out: Mortality (%) 72 h), 100%. Besides, the LC50 in data set [3] (Schistosoma japonicum, 72 h, read-out: LC50 (72 h)) was determined as 43.8 ± 8.26 µM.

For the molecule `Cc1ccc(C(=O)NN(C)c2ccc(Cl)c(Cl)c2)cc1` [Compound 15], the mortality at 100 µM in data set [3] (setting [5]) is 0%; in data set [3] (setting [6]) it was 20%; in data set [3] (setting [7]), 35%; in data set [3] (setting [8]), 65%.

In the case of `CN(NC(=O)c1ccc(F)c(F)c1)c1ccc(Cl)c(Cl)c1` [Compound 24], the “Mortality (%) 72 h” value in data set [3] (72 h) is on record as 90%. Moreover, the mortality at 100 µM in data set [3] (setting [5]) is 0%; in data set [3] (setting [6]), 5%; in data set [3] (setting [7]), 45%; in data set [3] (setting [8]) it was more than 90%.
